In patent publication US20050170019A1, “Methods, compositions and devices for inducing stasis in cells” (Fred Hutchinson Cancer Research Center, priority 2003, published 2005):

Tests used:
[1] = test system: mice; assay: Visual observation of breathing of mice administered H2S; type: in vivo, mouse
Text: The different parameters of stasis (reduction in oxygen consumption, decrease in carbon dioxide production or decrease in motility) can be assessed by a variety of assays and techniques. […] Indeed, this encompasses all three parameters in that it is indicative of decreased oxygen consumption, carbon dioxide production and motility. A normal mouse in room air at standard conditions will take approximately 200 breaths per minute. […] Thus, this represents at least about a 1-20-fold decrease in cellular respiration (i.e, oxygen consumption and carbon dioxide production).
During the experiment, the mouse was visually observed and its movements were recorded by web camera, and telemetry measurements were recorded as described above. […] At the end of an approximately six-hour period, heat was applied to the cabinet by setting the cabinet temperature to 25° C. […] After the cabinet was warmed, weak respiration was observed when the core body temperature of the mouse achieved 14° C. […] Normal movement and respiration were fully apparent when the core body temperature returned to 25° C.

[2] = test system: humans; settings: cited from earlier work
[3] = test system: mice; settings: mice tested before and after exposure
[4] = test system: mice; settings: 80 ppm, cited from earlier work
[5] = test system: mice; assay: Telemetry of core body temperature, heart rate and movement of mice in regulated H2S atmosphere; type: in vivo, mouse
Text: Implantation of telemetry devices.
Exposure of Mice to Regulated Atmosphere.
Regulation of Ambient Temperature. […] Mice were exposed to regulated atmosphere as described above.

[6] = test system: mice; assay: Respirometry (oxygen consumption, carbon dioxide production) of mice exposed to H2S; type: in vivo, mouse
Procedure: Measurements were over a period of 15 minutes, with the mice in a 0.5 L sealed environmental chamber with flow rates of 500 cc/min. Consumption of oxygen is obtained by subtracting the oxygen concentration when the mouse is present, from the control when the mouse is absent. Likewise, production of carbon dioxide is obtained by subtracting the carbon dioxide concentration when the mouse is present from the control when the mouse is absent. RQ stands for respiratory quotient, and is equal to the ratio of carbon dioxide produced to oxygen […]. […] The change in the respiratory quotient reflects the disparity oxygen consumption and carbon dioxide production by the mice in the presence or absence of the H2S.

[7] = test system: rats; settings: cited from earlier work
[8] = second mouse, 80 ppm, 3 hrs, incubator 18° C.
[9] = mice, H2S 80 ppm versus without H2S

Structure (SMILES): S [hydrogen sulfide, Hydrogen sulfide]
- core body temperature at which weak respiration was observed on warming ([1]; 80 ppm, after cabinet 10.5° C., warming): 14 °C
- decrease in cellular respiration ([1]; 80 ppm, core temperature 15° C., from breathing): 1-20 fold
- breathing ([1]; 80 ppm, core temperature dropped to 15° C., normal approximately 200): 1-10 breaths per minute
- core body temperature at which normal movement and respiration were fully apparent ([1]; after 80 ppm at 10.5° C., warming, room air): 25 °C
- effect of exposure to extreme levels ([2]; 500 ppm): sudden collapse and unconsciousness
- effect of a single breath (knock down) ([2]; atmosphere with 0.1% hydrogen sulfide): immediately collapse
- OSHA limit for humans ([2]; in vivo): 10 ppm
- behavioral differences after gas exposure [3]: no detectable behavioral differences
- tolerability ([4]; exposures lasting up to ten weeks (CIIT 1983; Hays, 1972)): innocuous
- adverse effect, gross and histopathological examination ([4]; mice, 6 hrs per day, 5 days per week, 90 days): no observed adverse effect
- core temperature reached ([5]; first mouse, 80 ppm, 90 min, incubator 18° C.): 28.6 °C
- time to return to normal range of core temperature and activity in room air ([5]; first mouse, after 90 min at 80 ppm): ≤ 60 min
- behavior of the animals after treatment ([5]; four mice maintained for 4 weeks after 6 hr 80 ppm at 15° C.): no apparent change in the behavior
- behavior compared to untreated animals ([5]; mouse after 80 ppm at cabinet 10.5° C.): no apparent change in the behavior
- core body temperature repeatedly reached ([5]; mouse, 80 ppm protocol): 13-15 °C
- lowest core body temperature recorded (FIG. 7) ([5]; mouse, 80 ppm, ambient dropped to less than 10° C.): 10.7 °C
- time to recover activity after removal from gassing chamber ([5]; non-telemetry mouse, 80 ppm, cabinet 10° C.): ≤ 90 min
- core temperature reached [5, 8]: 18.6 °C
- heart rate reached (from 600 bpm) [5, 8]: 250 bpm
- recovery after rewarming in room air ([5]; seven mice, 80 ppm, 6 hrs): successfully recovered
- lowest average core body temperature ([5]; seven mice, 80 ppm, 6 hrs, ambient temperature 13° C.): 15 °C
- core temperature reached (estimation, electronics failed at 15.3° C.) ([5]; telemetry mouse, 80 ppm, cabinet 10° C.): approximately 12.5 °C
- core body temperature reached ([5]; telemetry mouse, 80 ppm, cabinet 10.5° C., approximately six hours): 10.5 °C
- RQ (respiratory quotient) ([6]; H2S (80 ppm) present): 0.58
- production of carbon dioxide ([6]; H2S (80 ppm) present): 750 ppm
- Consumption of oxygen ([6]; H2S (80 ppm) present, control without mouse minus mouse present): 1300 ppm
- drop in carbon dioxide production [6, 9]: 3-4 fold
- drop in oxygen consumption [6, 9]: 2-3 fold
- decrease in CO2 production ([6]; mouse, 80 ppm (FIG. 4A)): approximately 3 fold
- time to reduced carbon dioxide production (new baseline) ([6]; mouse, 80 ppm (FIG. 4A)): approximately 5 minutes
- neurologic effect of perinatal exposure ([7]; 20 or 50 ppm, 7 hours per day, gestation through post-natal day 21): longer dendritic branches with reduced aborization of cerebellar Purkinje cells
- effects in exposed rat pups, perinatal study ([7]; 80 ppm (Dorman et al., 2000)): no neuropathological effects or altered motor activity, passive avoidance, or acoustic startle response
- learning of baited radial arm maze task ([7]; moderate levels (Partlo et al., 2001)): interferes with the ability of rats to learn a baited radial arm maze task
- discriminated avoidance responses ([7]; moderate levels, immediately after end of exposure (Higuchi and Fukamachi)): inhibits discriminated avoidance responses
- adverse effect, gross and histopathological examination ([7]; rats, 80 ppm, 6 hrs per day, 5 days per week, 90 days): no observed adverse effect
